# Results as given in article PMC8344022, “Small-molecule inhibitor of AF9/ENL-DOT1L/AF4/AFF4 interactions suppresses malignant gene expression and tumor growth” (Theranostics, 2021).
# Values joined by “and” are separate entries in the source; they are usually repeats but may differ in a detail not shown here. Identical values can stand only once.
# Assays:
# ENL-AF4 interaction = biological target: T1, ENL-AF4 interaction (Homo sapiens, UniProt Q03111); assay: Alpha assay, ENL-AF4 interaction; assay type: binding; details: read-out: IC50, inhibition of ENL-AF4 interaction
# T1 construct: ENL AHD domain (489-559) was synthesized (by Genscript) and inserted into the pMAL c5X expression plasmid; made in house; host or cells: E. coli BL21(DE3)
# Method: ENL is also a major MLL fusion partner (~10%). The AHD domains of human ENL and AF9 share a high homology with 82% identity and 89% similarity (Figure S1A). […] Our attempts to develop an Alpha assay for ENL-DOT1L failed. […] Compound 1's activity against ENL-DOT1L was therefore not determined.
# Alpha assays. Alpha assays were developed using Perkin-Elmer AlphaLisa anti-MBP kit, which contains streptavidin donor beads and anti-MBP acceptor beads. The assay was performed using a MBP-protein (5 nM), a biotinylated peptide (40 nM), and increasing concentrations of a compound in 25 µL buffer (PBS with 0.5 % BSA, pH 7.5) in 384-well plates according to the manufacturer's protocol and measured with a Tecan SPARK microplate reader. Data were imported into Prism (version 5.0), and IC50 values from 3 independent experiments with standard deviation were obtained by using a standard dose-response curve fitting.
# [1] = tested on: MLL-AF9-bound DOT1L and AF4 in Molm-13 cells; assay: Co-immunoprecipitation with N-terminal MLL antibody; assay type: cell-based; details: 2 days
# Method: Next, we investigated how compound 1 affects these transcription cofactors in the nucleus, where they regulate gene expression. […] DOT1L inhibitor EPZ4777 [25] reduced the methylation levels of H3K79, but not other proteins (Figure 3B). […] In this regard, despite lack of activity against DOT1L, compound 1 can mimic EPZ4777 to reduce H3K79 methylation.
# Co-immunoprecipitation. 10^8 Molm-13 cells were treated with a compound or DMSO for 48 hr. Co-immunoprecipitation of the nuclear protein extracts (450 µg of total protein from 10^8 molm-13 cells) was performed using a Nuclear Complex Co-IP Kit (#54001, Active Motif). Briefly, 3 µg of MLL-N Rabbit mAb (#14689, Cell signaling) and 100 µL Protein G Agarose Beads (#37478, Cell signaling) were added and incubated with the nuclear extractions overnight at 4 °C. The Agarose beads with captured antibody and relevant protein complexes were isolated, washed and subjected to Western blot for protein detection.
# T1 sequence (Q03111 489-559): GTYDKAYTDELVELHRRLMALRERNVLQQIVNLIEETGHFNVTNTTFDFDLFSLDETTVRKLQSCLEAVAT
smiles,measurement,setting,value
CC(C)(C)c1ccc(-n2cc(C(=O)NC3CCNCC3)nc2-c2ccccc2)cc1 [Compound 1],IC50,ENL-AF4 interaction,900 nM and 940 nM
same,MLL-AF9-bound DOT1L and AF4 (Co-IP),[1],dose-dependent decrease of MLL-AF9-bound DOT1L and AF4
